What follows are molecules tested against T1, human TLR8 (wild type sequence) (Homo sapiens, UniProt Q9NR97) (assay: TLR8 cellular NFκB-luc reporter assay, wild type TLR8). Details: lowest effective concentration, wild type TLR8 (compounds 1-73).
T1 construct: expressed in transfected cells; host or cells: HEK293
T1 sequence (Q9NR97 27-1041): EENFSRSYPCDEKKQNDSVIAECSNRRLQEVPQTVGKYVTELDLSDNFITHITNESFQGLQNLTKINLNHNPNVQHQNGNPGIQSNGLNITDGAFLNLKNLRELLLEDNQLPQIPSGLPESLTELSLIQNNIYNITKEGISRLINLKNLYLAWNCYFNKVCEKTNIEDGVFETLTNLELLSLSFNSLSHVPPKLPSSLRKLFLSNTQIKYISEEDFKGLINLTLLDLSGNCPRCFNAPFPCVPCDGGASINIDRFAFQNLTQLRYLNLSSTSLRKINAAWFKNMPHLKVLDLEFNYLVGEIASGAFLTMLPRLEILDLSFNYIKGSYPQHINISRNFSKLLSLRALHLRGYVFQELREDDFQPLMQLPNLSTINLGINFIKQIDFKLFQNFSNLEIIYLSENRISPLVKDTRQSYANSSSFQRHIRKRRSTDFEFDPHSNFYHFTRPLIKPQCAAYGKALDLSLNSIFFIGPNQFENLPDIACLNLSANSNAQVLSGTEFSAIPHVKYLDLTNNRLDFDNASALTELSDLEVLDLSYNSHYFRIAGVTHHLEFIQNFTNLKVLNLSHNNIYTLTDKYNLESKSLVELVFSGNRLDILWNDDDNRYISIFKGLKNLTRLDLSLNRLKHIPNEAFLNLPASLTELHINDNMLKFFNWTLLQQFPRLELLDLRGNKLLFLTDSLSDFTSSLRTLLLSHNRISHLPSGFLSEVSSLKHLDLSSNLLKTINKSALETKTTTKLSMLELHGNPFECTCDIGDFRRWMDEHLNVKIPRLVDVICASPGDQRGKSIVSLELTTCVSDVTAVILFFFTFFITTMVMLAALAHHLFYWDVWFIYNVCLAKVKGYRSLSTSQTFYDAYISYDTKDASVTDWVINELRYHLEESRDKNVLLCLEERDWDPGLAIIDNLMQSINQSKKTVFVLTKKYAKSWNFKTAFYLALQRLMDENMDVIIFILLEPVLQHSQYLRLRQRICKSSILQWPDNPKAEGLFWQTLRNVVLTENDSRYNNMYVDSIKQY
Type: cell-based
Design: unit not given here
Outline: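 HEK293, transient transfection 48 h (CMV-TLR7/8 WT or 2nd-LRR deletion + NFκB-luc); compound 6 h, 37 °C, 5% CO2; Steady Lite luciferase; quadruplicate dose-response; LEC = conc. ≥2× above assay SD.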

Row | Structure (SMILES) | TLR8-wt_LEC
1 | CCCCNc1nc(N)ncc1OCc1ccccc1-c1ccccc1 [Compound 25] | >25
2 | CCCCNc1nc(N)ncc1OCc1cc(C)no1 [Compound 26] | 3.90
3 | CCCCNc1nc(N)ncc1OCCN1CCOCC1 [Compound 27] | 5.36
4 | CCCCNc1nc(N)ncc1OCCCC(N)=O [Compound 28] | 9.18
5 | CCCCNc1nc(N)ncc1OCCCC#N [Compound 29] | 2.86
6 | CCCCNc1nc(N)ncc1OCCN [Compound 30] | 6.44
7 | CCCCNc1nc(N)ncc1OCc1cc(-c2ccc(F)cc2)on1 [Compound 33] | 1.78
8 | CCCCNc1nc(N)ncc1OCc1cn2ccccc2n1 [Compound 34] | 0.83
9 | CCCCNc1nc(N)ncc1OCc1cc(-c2ccc(OC)cc2)no1 [Compound 35] | 1.67
10 | CCCCNc1nc(N)ncc1OCc1cncn1C(C)c1ccccc1 (stereo not drawn) [Compound 37] | 9.22
11 | CCCCNc1nc(N)ncc1OCc1ccccc1OC(F)(F)F [Compound 43] | 8.22
12 | CCCCNc1nc(N)ncc1OCc1ccc(C(=O)OC)cc1OC [Compound 44] | 3.11
13 | CCCCNc1nc(N)ncc1OCc1occc1C(=O)OC [Compound 45] | 0.58
14 | CCCCNc1nc(N)ncc1OCc1ccc(C(=O)OCC)o1 [Compound 46] | 3.85
15 | CCCCNc1nc(N)ncc1OCc1occc1C(=O)OCC [Compound 47] | 1.87
16 | CCCCNc1nc(N)ncc1OCc1occ(C(=O)OC)c1C(=O)OC [Compound 49] | 3.72
17 | CCCCNc1nc(N)ncc1OCc1cncn1-c1ccccc1C [Compound 50] | >25
18 | CCCCNc1nc(N)ncc1OCc1cccc(C(F)(F)F)c1 [Compound 51] | 3.92
19 | CCCCNc1nc(N)ncc1OCc1cc(C)on1 [Compound 52] | 3.61
20 | CCCCNc1nc(N)ncc1OCc1cc(F)c(F)cc1OC [Compound 53] | 3.06
21 | CCCCNc1nc(N)ncc1OCCOCCOC [Compound 61] | 3.59

What follows are molecules tested on human TLR7 mutant sequence comprising a deletion in the second leucine-rich repeat (assay: TLR7 cellular NFκB-luc reporter assay, mutant TLR7 with deletion in the second leucine-rich repeat). Details: lowest effective concentration, TLR7 mutant with deletion in second leucine-rich repeat.
Type: cell-based
Design: unit not given here
Outline: (§1)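 HEK293 cells transiently co-transfected with CMV-driven mutant TLR7 or TLR8 plasmid plus NFκB-luc reporter, cultured 48 h at 37 °C, then exposed to compound for 6 h at 37 °C, 5% CO2. Luciferase luminescence measured; dose-response curves from quadruplicates.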

Row | Structure (SMILES) | TLR7-dIRR2_LEC
22 | CCCCNc1nc(N)ncc1OCc1ccccc1-c1ccccc1 [Compound 25] | 0.64
23 | CCCCNc1nc(N)ncc1OCc1cc(C)no1 [Compound 26] | 0.49
24 | CCCCNc1nc(N)ncc1OCCN1CCOCC1 [Compound 27] | 0.78
25 | CCCCNc1nc(N)ncc1OCCCC(N)=O [Compound 28] | 2.47
26 | CCCCNc1nc(N)ncc1OCCCC#N [Compound 29] | 1.32
27 | CCCCNc1nc(N)ncc1OCCN [Compound 30] | >25
28 | CCCCNc1nc(N)ncc1OCc1cc(-c2ccc(F)cc2)on1 [Compound 33] | 0.36
29 | CCCCNc1nc(N)ncc1OCc1cn2ccccc2n1 [Compound 34] | 0.06
30 | CCCCNc1nc(N)ncc1OCc1cc(-c2ccc(OC)cc2)no1 [Compound 35] | 0.39
31 | CCCCNc1nc(N)ncc1OCc1cncn1C(C)c1ccccc1 (stereo not drawn) [Compound 37] | 0.04
32 | CCCCNc1nc(N)ncc1OCc1ccccc1OC(F)(F)F [Compound 43] | 0.08
33 | CCCCNc1nc(N)ncc1OCc1ccc(C(=O)OC)cc1OC [Compound 44] | 0.16
34 | CCCCNc1nc(N)ncc1OCc1occc1C(=O)OC [Compound 45] | 0.17
35 | CCCCNc1nc(N)ncc1OCc1ccc(C(=O)OCC)o1 [Compound 46] | 0.19
36 | CCCCNc1nc(N)ncc1OCc1occc1C(=O)OCC [Compound 47] | 0.20
37 | CCCCNc1nc(N)ncc1OCc1occ(C(=O)OC)c1C(=O)OC [Compound 49] | 0.31
38 | CCCCNc1nc(N)ncc1OCc1cncn1-c1ccccc1C [Compound 50] | 0.51
39 | CCCCNc1nc(N)ncc1OCc1cccc(C(F)(F)F)c1 [Compound 51] | 0.58
40 | CCCCNc1nc(N)ncc1OCc1cc(C)on1 [Compound 52] | 0.63
41 | CCCCNc1nc(N)ncc1OCc1cc(F)c(F)cc1OC [Compound 53] | 0.64
42 | CCCCNc1nc(N)ncc1OCCOCCOC [Compound 61] | 1.38

The molecules below were run on HCV replicon in Huh-7 luc/neo cells (assay: Suppression of HCV replicon replication by conditioned media from compound-treated PBMC). Details: Hepatitis C virus, Huh-7; read-out: PBMC-HUH7_EC50.
Type: cell-based, HCV type 1 b
Outline: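 Human PBMC (≥2 donors, RPMI + 10% human AB serum, 2×10^5 cells/well) incubated overnight with compounds; supernatant transferred onto Huh-7 luc/neo HCV 1b replicon cells. After 24 h, replication read as luciferase activity. Recombinant interferon α-2a served as standard.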

Row | Structure (SMILES) | EC50
43 | CCCCNc1nc(N)ncc1OCc1ccccc1-c1ccccc1 [Compound 25] | 1550 nM
44 | CCCCNc1nc(N)ncc1OCc1cc(C)no1 [Compound 26] | 580 nM
45 | CCCCNc1nc(N)ncc1OCCN1CCOCC1 [Compound 27] | 1030 nM
46 | CCCCNc1nc(N)ncc1OCCCC(N)=O [Compound 28] | 1750 nM
47 | CCCCNc1nc(N)ncc1OCCCC#N [Compound 29] | 2970 nM
48 | CCCCNc1nc(N)ncc1OCCN [Compound 30] | 9070 nM
49 | CCCCNc1nc(N)ncc1OCc1cc(-c2ccc(F)cc2)on1 [Compound 33] | 1480 nM
50 | CCCCNc1nc(N)ncc1OCc1cn2ccccc2n1 [Compound 34] | 50 nM
51 | CCCCNc1nc(N)ncc1OCc1cc(-c2ccc(OC)cc2)no1 [Compound 35] | 1500 nM
52 | CCCCNc1nc(N)ncc1OCc1cncn1C(C)c1ccccc1 (stereo not drawn) [Compound 37] | 120 nM
53 | CCCCNc1nc(N)ncc1OCc1ccccc1OC(F)(F)F [Compound 43] | 790 nM
54 | CCCCNc1nc(N)ncc1OCc1ccc(C(=O)OC)cc1OC [Compound 44] | 590 nM
55 | CCCCNc1nc(N)ncc1OCc1occc1C(=O)OC [Compound 45] | 170 nM
56 | CCCCNc1nc(N)ncc1OCc1ccc(C(=O)OCC)o1 [Compound 46] | 2510 nM
57 | CCCCNc1nc(N)ncc1OCc1occc1C(=O)OCC [Compound 47] | 330 nM
58 | CCCCNc1nc(N)ncc1OCc1occ(C(=O)OC)c1C(=O)OC [Compound 49] | 550 nM
59 | CCCCNc1nc(N)ncc1OCc1cncn1-c1ccccc1C [Compound 50] | 780 nM
60 | CCCCNc1nc(N)ncc1OCc1cccc(C(F)(F)F)c1 [Compound 51] | 500 nM
61 | CCCCNc1nc(N)ncc1OCc1cc(C)on1 [Compound 52] | 260 nM
62 | CCCCNc1nc(N)ncc1OCc1cc(F)c(F)cc1OC [Compound 53] | 600 nM
63 | CCCCNc1nc(N)ncc1OCCOCCOC [Compound 61] | 1910 nM

These molecules were tested on human TLR8 mutant sequence comprising a deletion in the second leucine-rich repeat (assay: TLR8 cellular NFκB-luc reporter assay, mutant TLR8 with deletion in the second leucine-rich repeat). Details: lowest effective concentration, TLR8 mutant with deletion in second leucine-rich repeat.
Type: cell-based
Design: unit not given here
Outline: as §1

Row | Structure (SMILES) | TLR8-dIRR2_LEC
64 | CCCCNc1nc(N)ncc1OCc1ccccc1-c1ccccc1 [Compound 25] | >25
65 | CCCCNc1nc(N)ncc1OCc1cc(C)no1 [Compound 26] | 1.52
66 | CCCCNc1nc(N)ncc1OCCN1CCOCC1 [Compound 27] | 0.64
67 | CCCCNc1nc(N)ncc1OCCCC(N)=O [Compound 28] | 6.99
68 | CCCCNc1nc(N)ncc1OCCCC#N [Compound 29] | 1.19
69 | CCCCNc1nc(N)ncc1OCCN [Compound 30] | 1.16
70 | CCCCNc1nc(N)ncc1OCc1cc(-c2ccc(F)cc2)on1 [Compound 33] | 1.17
71 | CCCCNc1nc(N)ncc1OCc1cn2ccccc2n1 [Compound 34] | 0.61
72 | CCCCNc1nc(N)ncc1OCc1cc(-c2ccc(OC)cc2)no1 [Compound 35] | 1.66
73 | CCCCNc1nc(N)ncc1OCc1cncn1C(C)c1ccccc1 (stereo not drawn) [Compound 37] | 5.69
74 | CCCCNc1nc(N)ncc1OCc1ccccc1OC(F)(F)F [Compound 43] | 1.66
75 | CCCCNc1nc(N)ncc1OCc1ccc(C(=O)OC)cc1OC [Compound 44] | 1.96
76 | CCCCNc1nc(N)ncc1OCc1occc1C(=O)OC [Compound 45] | 0.40
77 | CCCCNc1nc(N)ncc1OCc1ccc(C(=O)OCC)o1 [Compound 46] | 1.96
78 | CCCCNc1nc(N)ncc1OCc1occc1C(=O)OCC [Compound 47] | 0.66
79 | CCCCNc1nc(N)ncc1OCc1occ(C(=O)OC)c1C(=O)OC [Compound 49] | 2.07
80 | CCCCNc1nc(N)ncc1OCc1cncn1-c1ccccc1C [Compound 50] | >25
81 | CCCCNc1nc(N)ncc1OCc1cccc(C(F)(F)F)c1 [Compound 51] | 2.09
82 | CCCCNc1nc(N)ncc1OCc1cc(C)on1 [Compound 52] | 1.65
83 | CCCCNc1nc(N)ncc1OCc1cc(F)c(F)cc1OC [Compound 53] | 2.15
84 | CCCCNc1nc(N)ncc1OCCOCCOC [Compound 61] | 1.56

Reference: patent US11541050B2, “Pyrimidine derivatives for the treatment of viral infections” (JANSSEN SCIENCES IRELAND UC, priority 2011, dated 2023)
